Data: the supplement of paper PMC4862054

Key:
Test in all cases: normalised response (% of control), CellTox Green; higher = less cell death (100 = DMSO, 0 = benzethonium chloride kill control)
Details in all cases: incubation time: 72 h
MCF-10A = tested on: MCF-10A
How it was run: (§1)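 Normalised signals at single concentrations make up the values. They come from breast cancer cell lines seeded (20 µl suspension) into 384-well plates with compound at 5 concentrations in 10-fold steps over a compound-specific 10,000-fold range, incubated 72 h, and read for CellTox Green fluorescence then CellTiter-Glo luminescence. Each plate was normalised to 0.1 % DMSO (100) and a positive kill control (0).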

MDA-MB-468 = tested on: MDA-MB-468
How it was run: as §1

CAL-85-1 = tested on: CAL-85-1
How it was run: as §1

HDQ-P1 = tested on: HDQ-P1
How it was run: as §1

HCC1599 = tested on: HCC1599
How it was run: as §1

HCC1143 = tested on: HCC1143
How it was run: as §1

DU-4475 = tested on: DU-4475
How it was run: as §1

CAL-148 = tested on: CAL-148
How it was run: as §1

Compound | normalised response (MCF-10A) [%] | normalised response (MDA-MB-468) [%] | normalised response (CAL-85-1) [%] | normalised response (HDQ-P1) [%] | normalised response (HCC1599) [%] | normalised response (HCC1143) [%] | normalised response (DU-4475) [%] | normalised response (CAL-148) [%]
COc1ccc(S(=O)(=O)Nc2cccnc2Nc2ccc(O)cc2)cc1 [ABT-751] (1000 nM) | 81.3 | -16.6 | 35.1 | 90.5 | 87.8 | 98.9 | 93.9 | –
COc1ccc(S(=O)(=O)Nc2cccnc2Nc2ccc(O)cc2)cc1 [ABT-751] (10000 nM) | 42.6 | 112 | 50.8 | 107 | 74.5 | 121 | 107 | 81.8
Cc1cc(Nc2nc(N[C@@H](C)c3ncc(F)cn3)ncc2Cl)[nH]n1 [AZD1480] (100 nM) | 85.5 | 128 | 99.9 | 97.1 | 93.8 | 58.8 | 97.6 | 99
Cc1cc(Nc2nc(N[C@@H](C)c3ncc(F)cn3)ncc2Cl)[nH]n1 [AZD1480] (1000 nM) | 98.9 | 84.2 | 109 | 69.3 | 99.3 | 97.3 | 98.2 | 85.8
CNC(=O)c1ccccc1Sc1ccc2c(/C=C/c3ccccn3)n[nH]c2c1 [Axitinib] (1000 nM) | 97.6 | 129 | 104 | 102 | 118 | 51.8 | 104 | 108
CNC(=O)c1ccccc1Sc1ccc2c(/C=C/c3ccccn3)n[nH]c2c1 [Axitinib] (10000 nM) | 93.8 | 156 | 75.7 | 58.1 | 118 | 103 | 108 | 22.8
CC(O)(CS(=O)(=O)c1ccc(F)cc1)C(=O)Nc1ccc(C#N)c(C(F)(F)F)c1 (stereo not drawn) [Bicalutamide] (1000 nM) | 105 | 137 | 94.6 | 104 | 101 | 111 | 103 | 87.8
CC(O)(CS(=O)(=O)c1ccc(F)cc1)C(=O)Nc1ccc(C#N)c(C(F)(F)F)c1 (stereo not drawn) [Bicalutamide] (10000 nM) | 106 | – | 67.6 | 66.2 | 91.5 | 134 | 104 | 105
CCNC(=O)CCC/C=C\C[C@@H]1[C@@H](/C=C/[C@@H](O)CCc2ccccc2)[C@H](O)C[C@@H]1O [Bimatoprost] (550 nM) | 108 | 69 | 93.9 | 66.3 | 97.1 | 105 | 97.2 | 104
CCNC(=O)CCC/C=C\C[C@@H]1[C@@H](/C=C/[C@@H](O)CCc2ccccc2)[C@H](O)C[C@@H]1O [Bimatoprost] (5500 nM) | 86.9 | – | 106 | 79.9 | 102 | 117 | 99.7 | 100
COc1cc(Nc2c(C#N)cnc3cc(OCCCN4CCN(C)CC4)c(OC)cc23)c(Cl)cc1Cl [Bosutinib] (1000 nM) | 93.7 | 164 | 93.7 | 93.3 | 100 | 116 | 101 | 92.5
COc1cc(Nc2c(C#N)cnc3cc(OCCCN4CCN(C)CC4)c(OC)cc23)c(Cl)cc1Cl [Bosutinib] (10000 nM) | -50.5 | -35 | -81.2 | 31.8 | 62 | 99.6 | 86.5 | 49
Cn1cc(C2=C(c3cn(C4CCN(Cc5ccccn5)CC4)c4ccccc34)C(=O)NC2=O)c2ccccc21 [Enzastaurin] (1000 nM) | 109 | 112 | 97.7 | 87.7 | 102 | 105 | 104 | 60
Cn1cc(C2=C(c3cn(C4CCN(Cc5ccccn5)CC4)c4ccccc34)C(=O)NC2=O)c2ccccc21 [Enzastaurin] (10000 nM) | 94.4 | 138 | 65 | 101 | 120 | 111 | 111 | 105
CC(C)(C)NC(=O)[C@H]1CC[C@H]2[C@@H]3CC[C@H]4NC(=O)C=C[C@]4(C)[C@H]3CC[C@]12C [Finasteride] (1000 nM) | 91.2 | 145 | 107 | 113 | 100 | 96.8 | 103 | 104
CC(C)(C)NC(=O)[C@H]1CC[C@H]2[C@@H]3CC[C@H]4NC(=O)C=C[C@]4(C)[C@H]3CC[C@]12C [Finasteride] (10000 nM) | 94.1 | 174 | 91.2 | 102 | 97.7 | 81.5 | 102 | 103
Nc1ccn([C@@H]2O[C@H](CO)[C@@H](O)C2(F)F)c(=O)n1 [Gemcitabine] (100 nM) | 94.5 | 28.4 | 87.8 | 87.8 | 87.5 | 111 | 98.8 | 48.3
Nc1ccn([C@@H]2O[C@H](CO)[C@@H](O)C2(F)F)c(=O)n1 [Gemcitabine] (1000 nM) | 90.5 | 122 | 73 | 108 | 86.5 | 103 | 96.9 | 61.1

Compound | normalised response (MCF-10A) [%] | normalised response (MDA-MB-468) [%] | normalised response (CAL-85-1) [%] | normalised response (HDQ-P1) [%] | normalised response (HCC1599) [%] | normalised response (HCC1143) [%] | normalised response (DU-4475) [%] | normalised response (CAL-148) [%]
CC(C)C[C@H](NC(=O)[C@@H](COC(C)(C)C)NC(=O)[C@H](Cc1ccc(O)cc1)NC(=O)[C@H](CO)NC(=O)[C@H](Cc1c[nH]c2ccccc12)NC(=O)[C@H](Cc1cnc[nH]1)NC(=O)[C@@H]1CCC(=O)N1)C(=O)N[C@@H](CCCNC(=N)N)C(=O)N1CCC[C@H]1C(=O)NNC(N)=O [Goserelin] (1000 nM) | – | 158 | 106 | 107 | 98.4 | 112 | 96.9 | 102
CC(C)C[C@H](NC(=O)[C@@H](COC(C)(C)C)NC(=O)[C@H](Cc1ccc(O)cc1)NC(=O)[C@H](CO)NC(=O)[C@H](Cc1c[nH]c2ccccc12)NC(=O)[C@H](Cc1cnc[nH]1)NC(=O)[C@@H]1CCC(=O)N1)C(=O)N[C@@H](CCCNC(=N)N)C(=O)N1CCC[C@H]1C(=O)NNC(N)=O [Goserelin] (10000 nM) | 75.6 | 181 | 114 | 62.5 | 95.5 | – | 98.9 | 104
CC(=O)[C@]1(O)Cc2c(O)c3c(c(O)c2[C@@H](O[C@H]2C[C@H](N)[C@H](O)[C@H](C)O2)C1)C(=O)c1ccccc1C3=O [Idarubicin] (100 nM) | 112 | 49.4 | 86.2 | – | 101 | 102 | 95.2 | 36
CC(=O)[C@]1(O)Cc2c(O)c3c(c(O)c2[C@@H](O[C@H]2C[C@H](N)[C@H](O)[C@H](C)O2)C1)C(=O)c1ccccc1C3=O [Idarubicin] (1000 nM) | 34.9 | 18.9 | -10.6 | 85.6 | 109 | 110 | 81.7 | 28.9
C/C(=C\c1csc(C)n1)[C@@H]1C[C@@H]2O[C@]2(C)CCC[C@H](C)[C@H](O)[C@@H](C)C(=O)C(C)(C)[C@@H](O)CC(=O)N1 [Ixabepilone] (100 nM) | 87.7 | 83 | 95.9 | – | 102 | 102 | 103 | 102
C/C(=C\c1csc(C)n1)[C@@H]1C[C@@H]2O[C@]2(C)CCC[C@H](C)[C@H](O)[C@@H](C)C(=O)C(C)(C)[C@@H](O)CC(=O)N1 [Ixabepilone] (1000 nM) | 101 | 87.1 | 14.6 | 96.2 | 104 | 120 | 101 | 100
C=CCn1c(=O)c2cnc(Nc3ccc(N4CCN(C)CC4)cc3)nc2n1-c1cccc(C(C)(C)O)n1 [MK1775] (1000 nM) | 64.5 | 56.5 | 25.9 | 48.7 | 67.4 | 103 | 87 | -11.1
C=CCn1c(=O)c2cnc(Nc3ccc(N4CCN(C)CC4)cc3)nc2n1-c1cccc(C(C)(C)O)n1 [MK1775] (10000 nM) | -5.92 | 45 | 4.99 | 40.5 | 66.1 | 14.8 | 85.3 | 22.7
CO[C@@H]1[C@H](N(C)C(=O)c2ccccc2)C[C@H]2O[C@]1(C)n1c3ccccc3c3c4c(c5c6ccccc6n2c5c31)C(=O)NC4 [Midostaurin] (1000 nM) | 93.8 | -9.58 | 92.1 | 93 | 74 | 63.8 | 87.7 | 67.4
CO[C@@H]1[C@H](N(C)C(=O)c2ccccc2)C[C@H]2O[C@]1(C)n1c3ccccc3c3c4c(c5c6ccccc6n2c5c31)C(=O)NC4 [Midostaurin] (10000 nM) | 93.3 | 0.55 | 97.5 | 55.3 | 81.2 | 91.4 | 88.6 | 66.4
CO[C@@]12[C@H](COC(N)=O)C3=C(C(=O)C(C)=C(N)C3=O)N1C[C@@H]1N[C@@H]12 [Mitomycin C] (1000 nM) | 90.1 | – | 97.6 | 106 | 98.1 | 104 | 94.7 | 97.8
CO[C@@]12[C@H](COC(N)=O)C3=C(C(=O)C(C)=C(N)C3=O)N1C[C@@H]1N[C@@H]12 [Mitomycin C] (10000 nM) | 85.4 | 5.66 | 102 | 71.8 | 99.1 | 36.6 | 94.7 | 42.2
CCNC(=O)c1noc(-c2cc(C(C)C)c(O)cc2O)c1-c1ccc(CN2CCOCC2)cc1 [NVP-AUY922] (100 nM) | 57.5 | 31.9 | 63.1 | 62.8 | 86.9 | 87.9 | 65.5 | 21.6
CCNC(=O)c1noc(-c2cc(C(C)C)c(O)cc2O)c1-c1ccc(CN2CCOCC2)cc1 [NVP-AUY922] (1000 nM) | 39.3 | 112 | 37.6 | 68.8 | 97.9 | 74.2 | 72.5 | 42.9
CC1(C)CCC(c2ccc(Cl)cc2)=C(CN2CCN(c3ccc(C(=O)NS(=O)(=O)c4ccc(N[C@H](CCN5CCOCC5)CSc5ccccc5)c(S(=O)(=O)C(F)(F)F)c4)cc3)CC2)C1 [Navitoclax] (1000 nM) | – | 84.7 | 79.3 | 54.7 | 89.8 | 92.9 | 90.2 | 71.7
CC1(C)CCC(c2ccc(Cl)cc2)=C(CN2CCN(c3ccc(C(=O)NS(=O)(=O)c4ccc(N[C@H](CCN5CCOCC5)CSc5ccccc5)c(S(=O)(=O)C(F)(F)F)c4)cc3)CC2)C1 [Navitoclax] (10000 nM) | 60.6 | 24.9 | 76.8 | -0.28 | 103 | 113 | 89.8 | 74.6
Cc1cn(-c2cc(NC(=O)c3ccc(C)c(Nc4nccc(-c5cccnc5)n4)c3)cc(C(F)(F)F)c2)cn1 [Nilotinib] (1000 nM) | 107 | 111 | 101 | 79.2 | 101 | 91.8 | 101 | 106
O=C(CCCCCCC(=O)Nc1ccccc1)NO [Vorinostat] (1000 nM) | 89.9 | 103 | 95.5 | – | 91.8 | 100 | 94.5 | 100
